# Test results reported in patent publication US20030134859A1 (SANKYO COMPANY, LIMITED, priority 2000, published 2003).
# pEC50, pIC50: −log10 of the molar value. Where two headings read alike, the source gives them in different places.
# Assays:
# [1] = target: T1, human PPAR γ 2 (Homo sapiens, UniProt P37231); test: PPAR γ transcriptional activity, luciferase reporter, test compound alone; type: cell-based; details: concentration indicating Emax/2, MG63 cells transfected with pSG5-hPPARg and pGV-P2-PPRE, 24 hr
# T1 construct: expressed in transfected cells; host or cells: human osteosarcoma MG63, transiently co-transfected with pSG5-hPPARg and the reporter pGV-P2-PPRE
# T1 sequence (P37231 1-505): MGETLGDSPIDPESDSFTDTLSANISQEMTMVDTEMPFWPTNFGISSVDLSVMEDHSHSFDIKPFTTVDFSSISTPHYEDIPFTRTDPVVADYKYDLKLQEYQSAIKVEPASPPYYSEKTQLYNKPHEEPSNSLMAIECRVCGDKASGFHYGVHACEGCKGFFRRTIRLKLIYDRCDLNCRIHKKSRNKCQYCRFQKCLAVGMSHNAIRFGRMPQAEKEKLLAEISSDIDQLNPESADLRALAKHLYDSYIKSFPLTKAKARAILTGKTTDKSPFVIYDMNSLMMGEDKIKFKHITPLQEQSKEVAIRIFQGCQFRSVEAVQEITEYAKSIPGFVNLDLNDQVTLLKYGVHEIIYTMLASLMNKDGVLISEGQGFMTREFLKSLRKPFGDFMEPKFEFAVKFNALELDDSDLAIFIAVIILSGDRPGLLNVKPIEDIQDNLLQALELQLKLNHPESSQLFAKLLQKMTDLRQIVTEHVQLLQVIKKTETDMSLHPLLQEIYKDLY
# Description: The primers of the polymerase chain reaction (hereinafter “PCR”) were designed according to the gene sequence of human PPAR γ 2 (GenBANK accession No. D83233). In order to insert the genes into the BamHI site of the plasmid pSG5 ([…] CLONING SYSTEMS), Bgl II sites were added upstream and downstream of the genes encoding human PPAR γ 2 protein. For this, 2 kinds of polynucleotides shown in the sequence numbers 1 and 2 in the sequence table described below (hereinafter “S1” and “AS1”, respectively) were used as PCR primers.
# (§1) In order to determine transcriptional activity via PPAR γ, 2 kinds of polynucleotides represented in sequence numbers 3 and 4 in the sequence table described below (hereinafter “S2” and “AS2”, respectively) were used for construction of the reporter plasmid having PPAR responsive element. The DNA fragment inserted was designed based on the gene sequence in the promoter region of rat acylCo-A oxidase (J. D. Tugwood, EMBO J., 11 (2), pp433-439 (1992)). For insertion of the DNA fragment into the reporter plasmid pGV-P2 (TOYO INK MFG CO., LTD), a NheI site and an XhoI site were added to the S2 and AS2, respectively.
# (§2) Using cDNA library (Clontech) derived from human adipose tissue as a template, DNA oligomers S1 and AS1 that were synthesized in the procedure 1 as primers and Ex-Taq™ (TAKARA BIO INC.) as a thermostable DNA polymerase-PCR was carried out. As a result of the PCR, the c.a. 1500 bps DNA fragments were amplified. Each cycle consisted of incubation at 94° C. for 1 min for denaturation of the template, then at 55° C. for 30 sec for annealing of DNA oligomers the PCR primer, and then at 72° C. for 30 sec for extension of the chain. The obtained DNA fragments with approximately 1500 base pairs were digested at the Bgl II sites and were inserted into BamHI sites of pSG5. Thus a human PPAR γ expression plasmid named pSG5-hPPAR g was obtained. The nucleotide sequence of the inserted DNA fragment was confirmed to be identical sequence to the human PPAR γ 2 reported by the dideoxy method.
# (§3) Vector pGV-P2 digestion products was prepared by digestion using the restriction enzymes, NheI and XhoI, and purified by 1.0% agarose-gel electrophoresis. The DNA oligomers, S2 and AS2 obtained in Procedure 2, were mixed together and were incubated in a hot bath at 94° C. for 1 min. After the annealing was partially broken, they were further incubated at 25° C. for 1 hr. Thus double-stranded DNA with annealing of S2 and AS2 was formed. Then, the terminus of the double-stranded DNA with annealing of S2 and AS2 was phosphorylated with DNA polynucleotide kinase (TOYOBO CO., LTD). After that, it was ligated to the pGV-P2 digestion products which were prepared previously using the NheI site and XhoI site. Thus the reporter plasmid pGV-P2-PPRE was obtained.
# (§4) Using the plasmid obtained by the procedures 3 and 4, transformation of Escherichia coli HB-101 strain was carried out by conventional methods. HB-101 strain having the plasmid was incubated in L-broth medium (containing 10 g of trypton (Difco), 5 g of yeast extract (Difco), 5 g of sodium chloride in 1 L of aqueous solution) containing 100 μg/ml of ampicillin at 37° C. for 17 hrs. Then, each plasmid was purified by the alkaline-SDS method and employed for the gene transfection to mammalian cells. After mixing the pSG5-hPPARg, PGV-P2-PPRE and LipofectAMINE reagent (GIBCO BRL), the human osteosarcoma MG63 was transiently transfected. Then the cells were recovered. The recovered cells were plated on a 96-well plate so as to be 30,000 cells/well and cultured in a CO2 incubator (NAPCO) at 37° C. for 24 hr under the condition of 5% CO2, 95%-RH.
# Various concentrations of the test compound alone were added to culturing medium of the cells prepared in the Procedure 5. After 24 hr of culturing, LT2.0 (TOYO INK MFG CO., LTD), a luciferase substrate, was added to the medium free culture plate. […]
# [2] = tested on: human colon cancer cells COL-2-JCK; test: Inhibition of colony forming activity in human colon cancer cells; type: cell-based; details: Homo sapiens, 240 h; 1 μM test compound; 10 days; sum of colony areas vs control; read-out: Inhibition Rate (%) against the colony forming activity
# Description: For the medium to culture the human colon cancer cells, D-MEM/F-12 medium containing inactivated bovine fetal serum at a concentration of 10% (GIBCO) was used. The human colon cancer cells COL-2-JCK (purchased from Institute for Experimental Animals) grown in mass formation in a plastic dish for the cell culture with an inner diameter of 100 mm were stripped off from the dish by using EDTA (ethylenediaminetetraacetic acid) and 0.05% trypsin solution. Then, a cell dilution solution was prepared at a concentration of 100 cells/mL solution which was diluted with the medium (D-MEM/F-12).
# Three (3) mL of the cell solution were inoculated in each well of a 6-well plastic plate (300 cells/well). The test compound that was dissolved in DMSO solution so as to be a final concentration of 1 μM of the test compound and that of DMSO solution of 0.1% was added to each well. DMSO solution alone was added into the well for the control so as to be a final concentration of 0.1%.
# The cells in each well were cultured for 10 days at 37° C. in the presence of 5% CO2. After the culturing was finalised, each well was washed once with Dulbecco-phosphate-buffer-saline solution (bivalent anion). Then, 1.5 ml of neutral buffered formalin solution containing 0.02% crystal violet was added to each well and the plate was kept stationary for 5 min for fixation and staining the cells. After fixation and staining, the cells were washed with water and were air-dried. Then the sum of the colony area (mm^2) of the stained cancer cells was calculated by using an image analyzer PCA-11 (SystemScience). From the calculated values, the inhibition rate (%) of the compound against the colony forming activity was obtained based on the following equation.
# Inhibition Rate (%) against the colony forming activity=(1−A/B)×100
# A: Sum of Colony Areas in the Group Treated with 1 μM of the Test Compound
# B: Sum of Colony Areas in the Control Group
# [3] = target: T1, human PPAR γ 2; test: Inhibitory activity against PPAR γ transcription in the presence of agonist compound A, luciferase reporter; type: cell-based; details: in the presence of 10 nM compound A (agonist); MG63 cells transfected with pSG5-hPPARg and pGV-P2-PPRE; 24 hr
# Text: The primers of the polymerase chain reaction (hereinafter “PCR”) were designed according to the gene sequence of human PPAR γ 2 (GenBANK accession No. D83233). […] For this, 2 kinds of polynucleotides shown in the sequence numbers 1 and 2 in the sequence table described below (hereinafter “S1” and “AS1”, respectively) were used as PCR primers.
# as §1
# as §2, with “As a result of the PCR, the c.a. 1500 bps DNA fragments were amplified.” left out, “obtained.” for “obtained. The nucleotide sequence of the inserted DNA fragment was confirmed to be identical sequence to the human PPAR γ 2 reported by the dideoxy method.”
# as §3, §4
# Ten (10) nM of the following compound A (although compound A is described here as a representative compound, the compound is not limited to compound A, if the compound exerts a PPAR r agonistic activity) and various concentrations of the test compound were added to culturing medium of the cells prepared in the Procedure 5.
# [4] = tested on: Balb/c mice; test: Prevention of concanavalin A liver injury; type: in vivo, mouse; details: Mus musculus, po, 24 h, 10 mg/mL suspension at 10 mL/kg, 30 min prior to Con A, plasma 24 hr after Con A
# Description: Five (5) Balb/c mice (female, 6-8 weeks old) per group were used. Liver injury was elicited in the mouse by injection of concanavalin A (Con A) dissolved in saline (2.0 mg/mL) into the tail vein at a volume of 10 mL/kg of the solution (Hepatology, 21, 190-198 (1995)).
# The test compounds were suspended in distilled water containing 0.5% CMC, at a concentration of 10 mg/mL. This suspended solution was orally administered to the mouse at a volume of 10 mL/kg, 30 min prior to injection of Con A (group A).
# Apart from this group, distilled water containing 0.5% CMC powder, instead of the test compound, was orally administered in the second group of mice (group B). In the 3rd group, nothing was given to the mice (group C).
# Twenty four (24) hr after the injection of Con A, blood was collected from the abdominal aorta of the mice and the plasma was isolated while mixing with heparin. Activities of glutamic acid oxaloacetic acid transaminase (AST) and glutamic acid pyruvic acid transaminase (ALT) in the plasma were determined according to the methods described by Nagakawa et al. (J. Pharmacol. Exp. Ther., 264, 496-500 (1993)). From the values obtained inhibitory rates of the test compound against AST and ALT levels which had been increased by injection of Con A, were obtained based on the following equation.
# Inhibitory Rate(%)={1−[(A−C)/(B−C)]}×100
# A: The average level of AST or ALT in the group A
# B: The average level of AST or ALT in the group B
# C: The average level of AST or ALT in the group C
# [5] = tested on: Rat white adipocytes; test: Stimulation of differentiation of the adipocytes (Oil Red O); type: cell-based; details: Rattus norvegicus, Adipocyte, 120 h, 100 nM test compound; 5 days; Oil Red O ABS550; control = 100%, blank = 0%; Table 7; read-out: Rate of Differentiation (%)
# Method in brief: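 Rat white adipocytes, 5,000 cells/well, cultured 5 days in differentiation-inducing medium with test compound at final 100 nM (0.1% DMSO). Cells fixed, stained with Oil Red O, dye extracted in DMSO and read at 550 nm; differentiation rate expressed relative to vehicle control (100%) and cell-free blank (0%).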
# [6] = tested on: Mouse preadipocyte strain 3T3-L1; test: Inhibition of differentiation as an indication of acetic acid uptake; type: cell-based; details: Mus musculus, 3T3-L1, 0.1 μM test substance, control (0.01% dimethylsulfoxide) = 100%, read-out: Rate of Uptake (%) of [2-14C] acetic acid
# Method in brief: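 Confluent 3T3-L1 cells induced to differentiate for 4 days (insulin, IBMX, dexamethasone, 5% FBS) with test compound at 0.1 μM final or 0.01% DMSO, then 2 days in insulin maintenance medium, at 37 °C, 10% CO2. [2-14C]acetic acid uptake over 1 hr counted by scintillation; expressed as % of DMSO control.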
# [7] = read-out: Preventing rate against liver injury, ALT (%)
# [8] = read-out: Preventing rate against liver injury, AST (%)
SMILES,pEC50 [1],inhibition at 1 µM [2] [%],pIC50 [3],"inhibition in vivo at 10000 µg/mL, 100 mg/kg [4, 7] [%]","inhibition in vivo at 10000 µg/mL, 100 mg/kg [4, 8] [%]",activity at 0.1 µM [5] [%],activity at 0.1 µM [6] [%]
"Cc1nc(NS(=O)(=O)c2ccc(NC(=O)c3cc([N+](=O)[O-])ccc3Cl)cc2)oc1C [Example 97, N-[4-(4,5-Dimethyloxazol-2-yl)aminosulfonyl]phenyl-(2-chloro-5-nitrophenyl)carboxamide]",6.44,3,6.10,,,,
"CS(=O)(=O)Nc1ccc(NC(=O)c2cc([N+](=O)[O-])ccc2Cl)cc1 [Example 136, N-(4-Methanesulfonylaminophenyl)-(2-chloro-5-nitrophenyl)carboxamide]",,,,13.1,12,129,88.9
"Cc1ccc(NS(=O)(=O)c2cccc(NC(=O)c3cc([N+](=O)[O-])ccc3Cl)c2)cc1 [Example 142, N-[3-(4-Tolylaminosulfonyl)phenyl]-(2-chloro-5-nitrophenyl)carboxamide]",,,,54,63,112,74.4
